Holding throughout (assay type): cell-based
The target in test [1] is T1, Human LBAT (Homo sapiens, UniProt Q14973).
T1 construct: expressed in transfected cells; kept under Geneticin selection
T1 sequence (Q14973 1-349): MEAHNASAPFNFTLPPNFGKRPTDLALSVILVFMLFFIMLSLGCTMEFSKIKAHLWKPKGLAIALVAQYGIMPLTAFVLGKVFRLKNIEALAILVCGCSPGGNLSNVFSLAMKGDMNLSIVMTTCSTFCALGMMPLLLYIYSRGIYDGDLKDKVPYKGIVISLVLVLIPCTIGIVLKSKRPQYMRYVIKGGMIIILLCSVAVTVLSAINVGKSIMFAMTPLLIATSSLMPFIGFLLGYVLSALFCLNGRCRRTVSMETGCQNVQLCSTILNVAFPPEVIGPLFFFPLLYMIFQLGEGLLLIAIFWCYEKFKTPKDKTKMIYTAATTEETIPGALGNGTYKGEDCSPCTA
The test can be described thus: LBAT (h/m) assay: 3H-taurocholic acid uptake in human LBAT-overexpressing cells. As to conditions: 0.3 μM 3H-taurocholic acid and 7.5 μM cold taurocholic acid, 20 minutes, read-out: hLBAT IC50. The gist of the method:
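LBAT-overexpressing cells, serum-free MEM-alpha, 20 min at 37° C with inhibitor (3-fold, 10-point) plus 0.3 μM 3H-taurocholic acid and cold taurocholic acid (7.5 μM human; 25 μM mouse), 0.2% DMSO. Stopped on ice, washed with 1 mM unlabelled taurocholate; uptake by scintillation counting.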

In test [2] the target is T2, Human ASBT (Homo sapiens, UniProt Q12908).
T2 construct: expressed in transfected cells; kept under Puromycin selection
T2 sequence (Q12908 1-348): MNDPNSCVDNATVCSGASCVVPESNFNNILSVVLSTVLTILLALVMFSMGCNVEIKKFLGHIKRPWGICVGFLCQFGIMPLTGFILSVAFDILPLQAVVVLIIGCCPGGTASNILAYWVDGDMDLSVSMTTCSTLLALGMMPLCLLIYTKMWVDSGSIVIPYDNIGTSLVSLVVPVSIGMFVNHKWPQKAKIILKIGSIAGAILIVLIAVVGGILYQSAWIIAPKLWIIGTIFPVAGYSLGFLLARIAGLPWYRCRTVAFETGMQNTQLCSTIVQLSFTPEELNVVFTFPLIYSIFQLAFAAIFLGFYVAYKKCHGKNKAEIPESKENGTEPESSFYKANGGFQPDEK
The test can be described thus: ASBT (h/m) assay: 3H-taurocholic acid uptake in human ASBT-overexpressing cells. As to conditions: 0.25 μM 3H-taurocholic acid and 5 μM cold taurocholic acid, 20 minutes, read-out: hASBT IC50. The method, then:
ASBT (h/m) Assay Protocol
10,000 cells (Human or Mouse ASBT-overexpressing cells) were seeded in 96-wells plate (Corning CLS3809) in 200 μL MEM-alpha medium (Gibco 12571-063) supplemented with 10% FBS (Gibco 10438026) containing Puromycin (Gibco A1113803) (10 μg/mL) and incubated at 37° C. in 5% CO2 for 48 hours. After incubation, media was decanted from the wells and cells were washed two times with 300 μL of basal MEM-alpha medium (FBS-free). After decanting basal MEM-alpha medium each time, plates were tapped against paper towel to ensure maximum removal of residual media. Test inhibitor dilutions (highest test concentration being 10 μM, 3-fold serial dilution, 10 points) prepared in DMSO (Sigma D2650) were added in incubation mix (maintaining 0.2% final DMSO concentration) containing 0.25 μM 3H-taurocholic acid (ARC ART-1368) and 5 μM of cold taurocholic acid (Sigma T4009). 50 μL of incubation mix containing test inhibitors was then added to the wells (in duplicate) and the plates were incubated for 20 minutes in a CO2 incubator at 37° C. After incubation, the reaction was stopped by keeping the plates on ice water mix for 2-3 minutes and then the incubation mix was aspirated completely from the wells. The wells were washed two times with 250 μL of chilled unlabelled 1 mM taurocholic acid dissolved in HEPES (Gibco 15630080)-buffered (10 mM) HBSS (Gibco 14175079) (pH 7.4). The plates were tapped against a paper towel after every wash to ensure maximum removal of blocking buffer.
100 μL of MicroScint-20 (PerkinElmer 6013621) was added to the wells and kept overnight at room temperature before reading the plates in TopCount NXT™ Microplate Scintillation and Luminescence Counter from PerkinElmer under 3H Test protocol (set at 120 seconds reading time per well).
(§1) Preparation of Test Compound Dilutions
(§2) All test compounds were provided in powder form at room temperature. 10 mM DMSO stocks of the test compounds were prepared, aliquoted and stored at −20° C. From the 10 mM DMSO stock of the compounds, a 3-fold serial dilution in DMSO was prepared to get a total of 10 dilutions of the test compounds. 0.5 μL of this dilution in DMSO was added to 250 μL of FBS-free basal media containing 3H-taurocholic acid and cold taurocholic acid to prepare the incubation mixture.

Test [3] relates to HepaRG cells. Nature of the test: HepaRG-based assay: 3H-taurocholic acid uptake in differentiated HepaRG cells. Particulars: Homo sapiens, HepaRG, 0.3 μM 3H-taurocholic acid and 7.5 μM cold taurocholic acid, 30 minutes. Here is the method:
HepaRG-Based Assay Protocol
A cryopreserved vial of differentiated HepaRG cells (Biopredic International HPR116080) was thawed in HepaRG Thawing/Plating/General Purpose Medium (Biopredic International ADD670C) supplemented with 200 mM Glutamax (Gibco 35050061) following the protocol provided by Biopredic International. 70,000 cells per well were seeded in 96-wells plate (Corning CLS3809) in 100 μL of HepaRG Thawing/Plating/General Purpose Medium supplemented with 200 mM Glutamax and incubated at 37° C. in 5% CO2 for 24 hours. Post incubation, the seeding media was replaced by HepaRG Maintenance/Metabolism Medium (Biopredic International ADD620C) and incubated for 6 days, with fresh HepaRG Maintenance/Metabolism Medium replenishment every 48 hours. After 7 days incubation post seeding, incubation media was decanted from the wells and cells were washed two times with 250 μL of William's E Basal Media (Gibco 12551032). After decanting William's E Basal Media each time, plates were tapped against paper towel to ensure maximum removal of residual media.
Incubation mix was prepared by adding test inhibitor dilutions (3-fold serial dilution in DMSO (Sigma D2650)) in William's E media (basal) containing 0.3 μM 3H-taurocholic acid (ARC ART-1368) and 7.5 μM cold taurocholic acid (Sigma T4009) (maintaining 0.2% final DMSO concentration). 50 μl of incubation mix containing test inhibitors was then added to the wells (in duplicate) and the plates were incubated for 30 minutes in 5% CO2 incubator at 37° C. After incubation, the reaction was stopped by keeping the plates on ice water mix for 2-3 minutes and then the incubation mix was aspirated completely from the wells. The wells were washed two times with 250 μL of chilled unlabelled 1 mM taurocholic acid dissolved in HEPES (Gibco 15630080)-buffered (10 mM) HBSS (Gibco 14175079) (pH 7.4). The plates were tapped against a paper towel after every wash to ensure maximum removal of blocking buffer.
100 μL of MicroScint-20 (PerkinElmer 6013621) was added to the wells and kept overnight at room temperature before reading the plates in TopCount NXT™ Microplate Scintillation and Luminescence Counter from PerkinElmer under 3H Test protocol (set at 120 seconds reading time per well, with normal plate orientation).
as §1, §2

The term IC50 denotes the concentration that inhibits the measured activity by half.

Turning to `CCCCC1(CC)CN(c2ccccc2)c2cc(SC)c(O/C=C/C(=O)O)cc2S(=O)(=O)C1` (racemic) [Example 16, (E)-3-((3-butyl-3-ethyl-7-(methylthio)-1,1-dioxido-5-phenyl-2,3,4,5-tetrahydro-1,5-benzothiazepin-8-yl)oxy)acrylic Acid], the half-inhibitory concentration (IC50) is 0.082 µM in test [1], 0.033 µM in test [2] and 1.03 µM in test [3].
With `CCCCC1(CC)CN(c2ccccc2)c2cc(SC)c(O/C=C(\F)C(=O)O)cc2S(=O)(=O)C1` (racemic) [Example 41, (Z)-3-((3-butyl-3-ethyl-7-(methylthio)-1,1-dioxido-5-phenyl-2,3,4,5-tetrahydro-1,5-benzothiazepin-8-yl)oxy)-2-fluoroacrylic Acid], the IC50 was found to be 0.0083 µM in test [1], 0.026 µM in test [2] and 0.336 µM in test [3].
On to `CCCCC1(CC)CN(c2ccccc2)c2cc(Cl)c(O/C=C(\F)C(=O)O)cc2S(=O)(=O)C1` (racemic) [Example 46, (Z)-3-((3-butyl-7-chloro-3-ethyl-1,1-dioxido-5-phenyl-2,3,4,5-tetrahydro-1,5-benzothiazepin-8-yl)oxy)-2-fluoroacrylic Acid], for which the results for the half-inhibitory concentration (IC50) in test [1], in test [2] and in test [3] were 0.024 µM, 0.097 µM and 0.59 µM, respectively.
Take `CCCCC1(CC)CN(c2ccccc2)c2cc(Cl)c(O/C=C/C(=O)O)cc2S(=O)(=O)C1` (racemic) [Example 49, (E)-3-((3-butyl-7-chloro-3-ethyl-1,1-dioxido-5-phenyl-2,3,4,5-tetrahydro-1,5-benzothiazepin-8-yl)oxy)acrylic Acid]: the values for the 50% inhibitory concentration (IC50) in test [1], in test [2] and in test [3] were 0.094 µM, 0.22 µM and 0.57 µM, respectively.
The matching figures for `CCCCC1(CC)CN(c2ccccc2)c2cc(Br)c(O/C=C(\F)C(=O)O)cc2S(=O)(=O)C1` (racemic) [Example 63, (Z)-3-((7-bromo-3-butyl-3-ethyl-1,1-dioxido-5-phenyl-2,3,4,5-tetrahydro-1,5-benzothiazepin-8-yl)oxy)-2-fluoroacrylic Acid]: 0.01 µM, 0.035 µM and 0.358 µM.
On to `CCCCC1(CC)CN(c2ccccc2)c2cc(SC)c(O/C=C(\F)C(=O)O)cc2S(=O)(=O)N1` (racemic) [Example 84, (Z)-3-((3-butyl-3-ethyl-7-(methylthio)-1,1-dioxido-5-phenyl-2,3,4,5-tetrahydro-1,2,5-benzothiadiazepin-8-yl)oxy)-2-fluoroacrylic Acid], for which the 50% inhibitory concentration (IC50) is 0.031 µM in test [1], 0.028 µM in test [2] and 0.559 µM in test [3].
For `CCCCC1(CC)CN(c2ccccc2)c2cc(SC)c(O/C=C/C(=O)O)cc2S(=O)(=O)N1C` (racemic) [Example 88, (E)-3-((3-butyl-3-ethyl-2-methyl-7-(methylthio)-1,1-dioxido-5-phenyl-2,3,4,5-tetrahydro-1,2,5-benzothiadiazepin-8-yl)oxy)acrylic Acid], in that order: 0.07 µM, 2.25 µM and 1.15 µM.
For `CCCCC1(CC)CN(c2ccccc2)c2cc(SC)c(O/C=C(\F)C(=O)O)cc2S(=O)(=O)N1C` (racemic) [Example 98, (Z)-3-((3-butyl-3-ethyl-2-methyl-7-(methylthio)-1,1-dioxido-5-phenyl-2,3,4,5-tetrahydro-1,2,5-benzothiadiazepin-8-yl)oxy)-2-fluoroacrylic Acid], in that order: 0.022 µM, 0.286 µM and 0.671 µM.
Consider `CCCCC1(CC)CN(c2ccccc2)c2cc(SC)c(O/C=C(\F)C(=O)O)cc2S(=O)(=O)C1` (single isomer, unassigned) [Example 42, (Z)-3-((3-butyl-3-ethyl-7-(methylthio)-1,1-dioxido-5-phenyl-2,3,4,5-tetrahydro-1,5-benzothiazepin-8-yl)oxy)-2-fluoroacrylic acid], for which the IC50 in test [1] is 0.01 µM; in test [2], 0.22 µM; in test [3], 0.378 µM.

Values taken from US11306064B2, “Benzothia(di)azepine compounds and their use as bile acid modulators” (Albireo AB, priority 2018, dated 2022).
